The results in this text go back to paper PMC5404560, “Towards Selective Mycobacterial ClpP1P2 Inhibitors with Reduced Activity against the Human Proteasome” (Antimicrobial Agents and Chemotherapy, 2017).

Values joined by “and” are separate entries in the source; they are usually repeats but may differ in a detail not shown here. Equal entries are not always repeated. Where only a bound is given, the exact number is not on record here.

In experiment [1] the target is HepG2 proteasome (Homo sapiens, UniProt P20618+P28074). Put plainly: Cell-based proteasome CT-like peptidase inhibition assay (Proteasome-Glo).
Protocol: A cell-based CT-like peptidase assay was performed using the Proteasome-Glo cell-based assay reagent (Promega) according to the manufacturer's guidelines. Briefly, HepG2 cells (10^4 cells/well) were treated with the compounds indicated in the figures for 2 h, followed by incubation with the luminescent substrate for 10 min. Luminescence was detected with a Tecan M200 Pro plate reader.
Experiment [2] has as its target ClpP1P2 (Mycolicibacterium smegmatis, UniProt A0R197+A0R198). In words: ClpP1P2 inhibition whole-cell RFP-SsrA reporter assay. Particulars: M. smegmatis ΔprcAB IC50 (μM) for ClpP1P2, whole-cell RFP-SsrA reporter, 3 h incubation.
For experiment [3], the system named is M. smegmatis ΔprcAB. The class given is cell-based. Particulars: for M. smegmatis ΔprcAB MIC50: 24 h exposure, OD600, concentration inhibiting 50% of growth; for improvement of bacterial-growth inhibition compared to compound 1: M. smegmatis ΔprcAB.

Sequence of ClpP1P2 (A0R198 4-203): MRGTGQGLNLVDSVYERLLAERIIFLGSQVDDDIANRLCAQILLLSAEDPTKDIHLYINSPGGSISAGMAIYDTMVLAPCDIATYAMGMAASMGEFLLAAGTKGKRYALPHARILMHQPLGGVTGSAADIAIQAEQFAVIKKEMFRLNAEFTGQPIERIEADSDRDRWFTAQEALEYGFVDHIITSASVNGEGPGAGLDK
Sequence of ClpP1P2 (A0R197 17-218): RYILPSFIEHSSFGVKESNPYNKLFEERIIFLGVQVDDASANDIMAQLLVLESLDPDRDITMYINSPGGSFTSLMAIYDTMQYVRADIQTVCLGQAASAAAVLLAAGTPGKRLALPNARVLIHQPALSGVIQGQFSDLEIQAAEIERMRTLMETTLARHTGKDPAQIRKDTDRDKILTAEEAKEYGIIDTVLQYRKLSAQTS

Consider `O=C(N[C@@H](Cc1ccccc1)C(=O)N[C@H](B(O)O)C1CCCCC1)c1cnccn1` [Compound 28, ((R)-cyclohexyl((S)-3-phenyl-2-(pyrazine-2-carboxamido)propanamido)methyl)boronic acid], for which the values for the IC50 in experiment [1] and in experiment [2] were 155 ± 25 nM and 33 ± 12 µM, respectively. The “M. smegmatis ΔprcAB MIC50” value in experiment [3] was found to be 16 ± 4 µM.

On to `O=C(N[C@@H](Cc1ccccc1)C(=O)N[C@@H](CCc1ccccc1)B(O)O)c1cnc(-c2ccccc2)nc1` [Compound 55, ((R)-3-phenyl-1-((S)-3-phenyl-2-(2-phenylpyrimidine-5-carboxamido)propanamido)propyl)boronic acid], for which the IC50 is 60 nM in experiment [1] and 6 µM in experiment [2]. For the same molecule, the “M. smegmatis ΔprcAB MIC50” value in experiment [3] turned out to be 5.5 ± 0.5 µM.

Turning to `CC(C)C[C@H](NC(=O)[C@H](Cc1ccccc1)NC(=O)c1cccnc1)B(O)O` [Compound 36, ((R)-3-methyl-1-((S)-2-(nicotinamido)-3-phenylpropanamido)butyl)boronic acid], the IC50 stood at 30 nM in experiment [1] and 4 ± 1.4 µM in experiment [2]. For the same molecule, the “M. smegmatis ΔprcAB MIC50” value in experiment [3] stood at 6 ± 0 µM.

As for `CC(=O)N[C@@H](Cc1ccccc1)C(=O)N[C@@H](Cc1ccccc1)B(O)O` [Compound 46, ((R)-1-((S)-2-acetamido-3-phenylpropanamido)-2-phenylethyl)boronic acid], the IC50 worked out at 218 ± 158 nM in experiment [1] and 50 µM in experiment [2]. Also, the “M. smegmatis ΔprcAB MIC50” value in experiment [3] stood at 50 ± 0 µM.

Consider `O=C(N[C@@H](Cc1ccccc1)C(=O)N[C@@H](CCC1CCCCC1)B(O)O)c1ccccc1F` [Compound 49, ((R)-3-cyclohexyl-1-((S)-2-(2-fluorobenzamido)-3-phenylpropanamido)propyl)boronic acid], for which the results for the IC50 in experiment [1] and in experiment [2] were 500 nM and above 200 µM, respectively. The “M. smegmatis ΔprcAB MIC50” value in experiment [3] is above 200 µM.

On to `CC(C)C[C@H](NC(=O)[C@H](Cc1ccccc1)NC(=O)c1ncc(-c2ccccc2)o1)B(O)O` (mixture of isomers) [Compound 42, ((R)-3-methyl-1-((S)-3-phenyl-2-(5-phenyloxazole-2-carboxamido)propanamido)butyl)boronic acid], for which the IC50 was 6 ± 1 nM in experiment [1] and 6.7 ± 4.1 µM in experiment [2]. For the same molecule, the “M. smegmatis ΔprcAB MIC50” value in experiment [3] came to 8 ± 0 µM.

On to `CC(C)C[C@H](NC(=O)[C@H](Cc1ccccc1)NC(=O)[C@H](Cc1ccccc1)NC(=O)c1cnccn1)B(O)O` [Compound 44], for which the IC50 in experiment [1] was 6 ± 1 nM; in experiment [2] it was above 200 µM. In experiment [3], the “M. smegmatis ΔprcAB MIC50” value amounted to 75 ± 0 µM.

On to `O=C(N[C@@H](Cc1ccccc1)C(=O)N[C@@H](CC1CCCCC1)B(O)O)c1cnccn1` (mixture of isomers) [Compound 29, ((R)-2-cyclohexyl-1-((S)-3-phenyl-2-(pyrazine-2-carboxamido)propanamido)ethyl)boronic acid], for which the IC50 in experiment [1] was 127 ± 2 nM; in experiment [2], 27 ± 16 µM. For the same molecule, in experiment [3], the “M. smegmatis ΔprcAB MIC50” value was determined as 22.5 ± 2.5 µM.

With `O=C(N[C@@H](Cc1ccccc1)C(=O)N[C@@H](CCC1CCCCC1)B(O)O)c1cnccn1` [Compound 30, ((R)-3-cyclohexyl-1-((S)-3-phenyl-2-(pyrazine-2-carboxamido)propanamido)propyl)boronic acid], the IC50 in experiment [1] is 500 ± 10 nM; in experiment [2], 25 µM. Moreover, the “M. smegmatis ΔprcAB MIC50” value in experiment [3] was 3.5 µM and 3.5 ± 0.5 µM.

`CC(C)C[C@H](NC(=O)[C@H](Cc1ccccc1)NC(=O)c1cc(-c2ccccc2)ncn1)B(O)O` [Compound 39, ((R)-3-methyl-1-((S)-3-phenyl-2-(6-phenylpyrimidine-4-carboxamido)propanamido)butyl) boronic acid]: the IC50 in experiment [1] is 6 ± 1 nM; in experiment [2], above 200 µM. For the same molecule, the “M. smegmatis ΔprcAB MIC50” value in experiment [3] is above 200 µM.

On to `CC(C)C[C@H](NC(=O)[C@H](Cc1ccccc1)NC(=O)N1CCCCC1)B(O)O` [Compound 45, ((R)-3-methyl-1-((S)-3-phenyl-2-(piperidine-1-carboxamido)propanamido)butyl)boronic acid], for which the IC50 in experiment [1] is 23 ± 8 nM; in experiment [2], 22.5 ± 2.5 µM. For the same molecule, the “M. smegmatis ΔprcAB MIC50” value in experiment [3] turned out to be 19 ± 5.4 µM.

For `O=C(N[C@@H](Cc1ccccc1)C(=O)N[C@@H](CCc1ccccc1)B(O)O)c1ccccc1F` [Compound 53, ((R)-1-((S)-2-(2-fluorobenzamido)-3-phenylpropanamido)-3-phenylpropyl)boronic acid], the results for the IC50 in experiment [1] and in experiment [2] were 200 nM and 4.5 µM, respectively. The “M. smegmatis ΔprcAB MIC50” value in experiment [3] amounted to 7 ± 3 µM.

For `CC(=O)N[C@@H](Cc1ccccc1)C(=O)N[C@@H](CC(C)C)B(O)O` [Compound 33, ((R)-1-((S)-2-acetamido-3-phenylpropanamido)-3-methylbutyl)boronic acid], the IC50 in experiment [1] was 10 ± 5 nM; in experiment [2], 42 µM and 41.7 µM. Further, in experiment [3], the “M. smegmatis ΔprcAB MIC50” value is 50 ± 0 µM.

In experiment [1], `CCCCC[C@H](NC(=O)[C@H](Cc1ccccc1)NC(=O)c1cnccn1)B(O)O` [Compound 27, ((R)-1-((S)-3-phenyl-2-(pyrazine-2-carboxamido)propanamido)hexyl)boronic acid] had an IC50 of 30 nM. The molecule also showed an IC50 in experiment [2] of 4 µM. Also, in experiment [3], the “M. smegmatis ΔprcAB MIC50” value was found to be 3 ± 0 µM and the “improvement of bacterial-growth inhibition compared to compound 1” value worked out at 2 fold.

`CC(C)C[C@H](NC(=O)[C@H](Cc1ccccc1)NC(=O)Cc1ccccc1)B(O)O` (mixture of isomers) [Compound 34, ((R)-3-methyl-1-((S)-3-phenyl-2-(2-phenylacetamido)propanamido)butyl)boronic acid]: the results for the IC50 in experiment [1] and in experiment [2] were 6 ± 1 nM and 9 ± 3 µM, respectively. In experiment [3], the “M. smegmatis ΔprcAB MIC50” value came out at 12 ± 0 µM.

Consider `CC(C)C[C@H](NC(=O)[C@H](Cc1ccccc1)NC(=O)c1cccc2ncsc12)B(O)O` [Compound 43], for which the results for the IC50 in experiment [1] and in experiment [2] were 6 ± 1 nM and 2.75 ± 1.25 µM, respectively. Further, the “M. smegmatis ΔprcAB MIC50” value in experiment [3] is 3 ± 0 µM. In experiment [3], the “improvement of bacterial-growth inhibition compared to compound 1” value amounted to 2 fold.

On to `CC(C)C[C@H](NC(=O)[C@H](C)NC(=O)c1cnccn1)B(O)O` [Compound 56, ((R)-3-methyl-1-((S)-2-(pyrazine-2-carboxamido)propanamido)butyl)boronic acid], for which the IC50 in experiment [1] was 225 ± 25 nM; in experiment [2], 100 µM. Moreover, the “M. smegmatis ΔprcAB MIC50” value in experiment [3] stood at 76.7 ± 20.5 µM.

As for `O=C(N[C@@H](Cc1ccccc1)C(=O)N[C@@H](CCC1CCCCC1)B(O)O)c1ccccc1` [Compound 48, ((R)-1-((S)-2-benzamido-3-phenylpropanamido)-3-cyclohexylpropyl)boronic acid], the IC50 is above 500 nM in experiment [1] and above 200 µM in experiment [2]. The “M. smegmatis ΔprcAB MIC50” value in experiment [3] was above 200 µM.

For `CC(C)C[C@H](NC(=O)[C@H](Cc1ccccc1)NC(=O)c1cnc(-c2ccccc2)nc1)B(O)O` (mixture of isomers) [Compound 38, ((R)-3-methyl-1-((S)-3-phenyl-2-(2-phenylpyrimidine-5-carboxamido)propanamido)butyl)boronic acid], the IC50 in experiment [1] turned out to be 6 ± 1 nM; in experiment [2], 1.7 ± 1 µM. The “M. smegmatis ΔprcAB MIC50” value in experiment [3] came to 2 ± 0 µM.

For the molecule `CC(C)C[C@H](NC(=O)[C@@H](N)Cc1ccccc1)B(O)O` [Compound 26, ((R)-1-((S)-2-amino-3-phenylpropanamido)-3-methylbutyl)boronic acid], the figures for the IC50 in experiment [1] and in experiment [2] were 80 ± 10 nM and above 200 µM, respectively. Also, the “M. smegmatis ΔprcAB MIC50” value in experiment [3] was found to be 100 ± 0 µM.
